We go through one molecule from patent US20150141383A1, “Darunavir Polymorph and Process for Preparation Thereof” (Cipla Limited, priority 2010, published 2015).

The data set in a line: Hygroscopicity study as per British Pharmacopoeia method. Format: physicochemical. The protocol: Darunavir Hydrate From C was subjected to hygroscopicity study and the test was performed as per the method given in British Pharmacopoeia.
A weight change of 0.0003 g was observed which correspond to 0.06% weight change. As per the test a sample is of non-hygroscopic nature if the weight change observed is less than 0.2%.

SMILES strings stand for the structures.

With `CC(C)CN(C[C@@H](O)[C@H](Cc1ccccc1)NC(=O)O[C@H]1CO[C@H]2OCC[C@H]21)S(=O)(=O)c1ccc(N)cc1` [darunavir hydrate Form C, (3R,3aS,6aR)-hexahydrofuro[2,3-b]furan-3-yl(1S,2R)-3-[[(4-aminophenyl)sulfonyl](isobutyl)amino]-1-benzyl-2-hydroxypropylcarbamate], the “hygroscopic nature (non-hygroscopic if weight change less than 0.2%)” value (25° C. and 85% RH, 24 hours) is on record as “non-hygroscopic”. In addition, the weight change is 0.0003 g (57.6456 g exposed at 25° C. and 85% RH for 24 hours); 0.06% (exposed at 25° C. and 85% RH for 24 hours).
